We go through one molecule from patent US20210361768A1, “METHODS AND MATERIALS FOR ASSESSING AND TREATING CANCERS” (Mayo Foundation for Medical Education and Research, priority 2018, published 2021).

This assay deals with HER2-positive breast cancer. Briefly: NeoALTTO trial: pathologic complete response and event-free survival by treatment arm and adaptive immune signature (AIS) status. It counts as in vivo, human. The conditions noted are these: NeoALTTO patients.
Where [1] appears, read: AIS deficient, listed as lapatinib.

As for `CS(=O)(=O)CCNCc1ccc(-c2ccc3ncnc(Nc4ccc(OCc5cccc(F)c5)c(Cl)c4)c3c2)o1` [Lapatinib, lapatinib], the “%6-yr EFS (6-year Event Free Survival rate)” value runs as follows: (AIS deficient) 68%; under setting [1], 68%; (AIS enrich) 65%. Moreover, the “% pCR (complete pathological response rate)” value by setting is: (AIS deficient) 17%; under setting [1], 17%; (AIS enrich) 21%.
